Values joined by “and” are separate entries in the source; they are usually repeats but may differ in a detail not shown here. Identical values can stand only once. Like-named read-outs stand apart in the source and are kept apart here.
Columns and labels:
[1] = test system: Normal Kunming (KM) mice; experiment: multiple OGTT (mOGTT): hypoglycemic duration after a single administration; format: in vivo; conditions: single injection at the same dose (1.126 nmol), subcutaneous
How it was run: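 Normal Kunming mice given a single dose, then oral glucose challenges; tail-blood glucose read by meter at 0, 10, 20, 40, 60 and 120 min. Duration scored as hypoglycemic period until group mean glucose exceeded the NaCl control twice.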

[2] = test system: Normal Kunming (KM) mice; experiment: single oral glucose tolerance test (sOGTT); format: in vivo; conditions: for glucose peak in single OGTT: after a single administration and oral glucose, tail blood at 0-120 min
From the text: • 1. Methods: Normal Kunming (KM) mice (purchased from Guangdong Animal Center) were used for oral glucose tolerance test (OGTT) to obtain the hypoglycemic activity and durability of drug. […] The blood glucose meter and blood glucose test paper were from Bayer […]. The average blood glucose of each group was used as an evaluation standard: When the average blood glucose of experimental group was higher than that of the NaCl control group for two times, the measurement stopped and the hypoglycemic period compared to the blank control group was the effective duration. • 2. Results • 2.1 single OGTTs: after a single administration, the mice were orally administered glucose once and measured the blood glucose from the tail blood at 0, 10, 20, 40, 60 and 120 min. […] The duration of each monomer group was about 1⁄2-1⁄4 of the duration of its corresponding dimer group. […] Therefore, the 2G3 peptide was selected for treating type II diabetes (T2D) in vivo and subsequent experiments.

[3] = test system: GLP-1R; experiment: GLP-1R Western blot analysis in T2D model; format: in vivo, C57B16/J mice; conditions: compared with the model control group
[4] = clinic trial for 24 weeks, once a day; cited from earlier work
[5] = speculated; cited from earlier work
[6] = in vivo; cited from earlier work
[7] = cited from earlier work
[8] = test system: thyroid C-cell; conditions: rodents, dose-dependent and time-dependent; cited from earlier work
[9] = T2D model treatment: body weight and organ weights; format: in vivo, C57B16/J mice; conditions: 2G3 study, 35 days
Experimental: C57B16/J mice were placed in an SPF-level environment with a standard diet. All experimental operations were performed in accordance with the guidelines of the ethics and uses of experimental animals. […] The NaCl-PB group served as blank control and the model control group served as the T2D model control. They were injected with NaCl-PB solution. The T2D model group was fed with 60 kcal % high-fat diet (D12492, Changzhou SYSE Bio-tech. Co., Ltd., China) until the end of the experiment. Meanwhile the blank control group maintained standard diet. […] These groups were subjected to a 35-day treatment study on the basis of the high-fat diet. • 1. […] The monomeric peptides were dissolved into a saline solution (pH 6.5) for injection. • 2. […] The models were measured blood glucose at the tail and weight weighted every morning at 9 am. […] In the T2D treatment study, all T2D model mice were injected subcutaneously at the back hip in 100 μl per mouse within 30 min. The blood glucose of the experimental mice was measured every five days and the whole measurement was completed within 40 min. […] No. 8-9695-03-201-1, Novo Nordisk company, Switzerland) until the end of the 35-day experiment. • 3.

[10] = test system: KM mice; experiment: Hypoglycemia test in fasted KM mice at multiples of the low dose; format: in vivo; conditions: 8 and 68 times of low dose, KM mice fasted for 13 hour, within 3 hours after the administration
[11] = trial for 26 weeks; cited from earlier work
[12] = high dose 3.378 nmol/100 μL once a day
[13] = low dose 0.375 nmol/100 μL once a day
[14] = medium dose and Liraglutide group 1.126 nmol/100 μL once a day

2G2 series 7: disulfide-linked homodimer of monomer SEQ ID NO: 7 (HAEGTFTSDVCSYLEGQAAXEFIAWLVRGRG; disulfide-linked homodimer; Sequence is synthesized; (20)..(20) Xaa is Xaa is 26Lys[N-e-(N-a-Palmitoyl-g-glutamyl)]; (31)..(31) C-terminal)
Hypoglycemic duration (days) [1]: 5 (2G2 peptide) days | hypoglycemic effect in single OGTT ([2]; with more time, no significant difference): stronger than that of monomeric G2 or G3 | GLP-1R expression (Western blot) [3]: significantly increased GLP-1R

Lixisenatide
incidence of side reaction [4]: 2.5% | symptomatic hypoglycemia rate [4]: 3.4%

His-Ala-Glu-Gly-Thr-Phe-Thr-Ser-Asp-Val-Ser-Cys-Tyr-Leu-Glu-Gly-Gln-Ala-Ala-Lys[N-ϵ-(N-α-Palmitoyl-L-γ-glutamyl)]-Glu-Phe-Ile-Ala-Trp-Leu-Val-Arg-Gly-Arg-Gly-OH (HAEGTFTSDVSCYLEGQAAXEFIAWLVRGRG; palmitoyl-γ-glutamyl on Lys; C-terminal acid; Sequence is synthesized; (20)..(20) Xaa is 26Lys[N-e-(N-a-palmitoyl-L-g-glutamyl)]; (31)..(31) C-terminal) [G3 series 20]
Hypoglycemic (day) ([1]; monomeric peptides): 4 (G3 peptide) day | glucose peak in single OGTT [2]: no blood glucose peak appeared

Semaglutide
half-life [5]: 165 to 184 h | hypoglycemic activity reduction compared with Liraglutide [6]: 3 times | injection-site discomfort and erythema ([7]; % of patients): 0.2% | gastrointestinal adverse reactions ([7]; Semaglutide 0.5 mg group): 32.7% | gastrointestinal adverse reactions ([7]; Semaglutide 1 mg group): 36.4% | mean increase in amylase ([7]; human, in vivo): 13% | mean increase in lipase ([7]; human, in vivo): 22% | severe hypoglycemia ([7]; in combination with sulfonylurea, % of patients): 0.8-1.2% | Cholelithiasis ([7]; two values printed 'respectively', groups not named): 1.5% and 0.4% | thyroid C-cell tumor [8]: can cause thyroid C-cell tumor

His-Ala-Glu-Gly-Thr-Phe-Thr-Ser-Asp-Val-Cys-Ser-Tyr-Leu-Glu-Gly-Gln-Ala-Ala-Lys[N-ϵ-(N-α-Palmitoyl-L-γ-glutamyl)]-Glu-Phe-Ile-Ala-Trp-Leu-Val-Arg-Gly-Arg-Gly-OH (HAEGTFTSDVCSYLEGQAAXEFIAWLVRGRG; palmitoyl-γ-glutamyl on Lys; C-terminal acid; Sequence is synthesized; (20)..(20) Xaa is Xaa is 26Lys[N-e-(N-a-Palmitoyl-g-glutamyl)]; (31)..(31) C-terminal) [G2 series 7]
glucose peak in single OGTT [2]: no blood glucose peak appeared

CCCCCCCCCCCCCCCC(=O)N[C@@H](CCC(=O)NCCCC[C@H](NC(=O)[C@H](C)NC(=O)[C@H](C)NC(=O)[C@H](CCC(N)=O)NC(=O)CNC(=O)[C@H](CCC(=O)O)NC(=O)[C@H](CC(C)C)NC(=O)[C@H](Cc1ccc(O)cc1)NC(=O)[C@H](CSSC[C@H](NC(=O)[C@H](CO)NC(=O)[C@@H](NC(=O)[C@H](CC(=O)O)NC(=O)[C@H](CO)NC(=O)[C@@H](NC(=O)[C@H](Cc1ccccc1)NC(=O)[C@@H](NC(=O)CNC(=O)[C@H](CCC(=O)O)NC(=O)[C@H](C)NC(=O)[C@@H](N)Cc1c[nH]cn1)[C@@H](C)O)[C@@H](C)O)C(C)C)C(=O)N[C@@H](Cc1ccc(O)cc1)C(=O)N[C@@H](CC(C)C)C(=O)N[C@@H](CCC(=O)O)C(=O)NCC(=O)N[C@@H](CCC(N)=O)C(=O)N[C@@H](C)C(=O)N[C@@H](C)C(=O)N[C@@H](CCCCNC(=O)CC[C@H](NC(=O)CCCCCCCCCCCCCCC)C(=O)O)C(=O)N[C@@H](CCC(=O)O)C(=O)N[C@@H](Cc1ccccc1)C(=O)N[C@H](C(=O)N[C@@H](C)C(=O)N[C@@H](Cc1c[nH]c2ccccc12)C(=O)N[C@@H](CC(C)C)C(=O)N[C@H](C(=O)N[C@@H](CCCNC(=N)N)C(=O)NCC(=O)N[C@@H](CCCNC(=N)N)C(=O)NCC(=O)O)C(C)C)[C@@H](C)CC)NC(=O)[C@H](CO)NC(=O)[C@@H](NC(=O)[C@H](CC(=O)O)NC(=O)[C@H](CO)NC(=O)[C@@H](NC(=O)[C@H](Cc1ccccc1)NC(=O)[C@@H](NC(=O)CNC(=O)[C@H](CCC(=O)O)NC(=O)[C@H](C)NC(=O)[C@@H](N)Cc1c[nH]cn1)[C@@H](C)O)[C@@H](C)O)C(C)C)C(=O)N[C@@H](CCC(=O)O)C(=O)N[C@@H](Cc1ccccc1)C(=O)N[C@H](C(=O)N[C@@H](C)C(=O)N[C@@H](Cc1c[nH]c2ccccc12)C(=O)N[C@@H](CC(C)C)C(=O)N[C@H](C(=O)N[C@@H](CCCNC(=N)N)C(=O)NCC(=O)N[C@@H](CCCNC(=N)N)C(=O)NCC(=O)O)C(C)C)[C@@H](C)CC)C(=O)O [2G3 series 20]
Weight of organs, Heart [9, 12]: 0.1235 ± 0.02 g | Weight of organs, Left kidney [9, 12]: 0.1661 ± 0.02 g | Weight of organs, Left testis [9, 12]: 0.1070 ± 0.01 g | Weight of organs, Liver [9, 12]: 1.023 ± 0.12b*c* g | Weight of organs, Lung [9, 12]: 0.1523 ± 0.02 g | Weight of organs, Pancreas [9, 12]: 0.3202 ± 0.07 g | Weight of organs, Right kidney [9, 12]: 0.1640 ± 0.02 g | Weight of organs, Right testis [9, 12]: 0.1060 ± 0.01c* g | Weight of organs, Spleen [9, 12]: 0.0763 ± 0.01 g | Weight of organs, adipose tissue [9, 12]: 1.0047 ± 0.30b* g | Weight of organs, Heart [9, 13]: 0.1199 ± 0.01 g | Weight of organs, Left kidney [9, 13]: 0.1703 ± 0.02 g | Weight of organs, Left testis [9, 13]: 0.1065 ± 0.01 g | Weight of organs, Liver [9, 13]: 1.138 ± 0.18a*c** g | Weight of organs, Lung [9, 13]: 0.1565 ± 0.02 g | Weight of organs, Pancreas [9, 13]: 0.3329 ± 0.05b* g | Weight of organs, Right kidney [9, 13]: 0.1648 ± 0.02 g | Weight of organs, Right testis [9, 13]: 0.1085 ± 0.01c* g | Weight of organs, Spleen [9, 13]: 0.0794 ± 0.02 g | Weight of organs, adipose tissue [9, 13]: 1.2216 ± 0.41a*c* g | Weight of organs, Heart [9, 14]: 0.1207 ± 0.01 g | Weight of organs, Left kidney [9, 14]: 0.1750 ± 0.02c* g | Weight of organs, Left testis [9, 14]: 0.1041 ± 0.01 g | Weight of organs, Liver [9, 14]: 1.048 ± 0.06a*b*c *** g | Weight of organs, Lung [9, 14]: 0.1429 ± 0.02 g | Weight of organs, Pancreas [9, 14]: 0.3115 ± 0.03 g | Weight of organs, Right kidney [9, 14]: 0.1617 ± 0.01 g | Weight of organs, Right testis [9, 14]: 0.1052 ± 0.01c* g | Weight of organs, Spleen [9, 14]: 0.0807 ± 0.01a* g | Weight of organs, adipose tissue [9, 14]: 1.0369 ± 0.44b* g | hypoglycemia [10]: did not induce any one of 6 KM mice fasted for 13 hour to produce hypoglycemia

Albiglutide
body weight reduction [11]: 0.6 kg

Dulaglutide
body weight reduction [11]: 2.9 kg

Source: patent US20240150423A1, “GLP-1 ANALOGUE-MODIFIED DIMERS WITH DIFFERENT CONFIGURATIONS, PREPARATION METHOD THEREOF, AND APPLICATION THEREOF IN TREATMENT OF TYPE II DIABETES” (Nanjing Finepeptide Biopharmaceutical Co.,Ltd, priority 2019, published 2024)
